The values below come from paper PMC12062775, “Shifting the substrate scope of dimeric pyranose oxidase from monosaccharide to glycoside preference through oligomeric state modification” (The Febs Journal, 2025).

One assay relates to T1, KaPOx_xal.
T1 construct: gene KaPOx; KaPOx with arm domain and oligomerization loop replaced by ScPOx insertion-1 domain and flexible loop; C-terminal His6; pET-21a(+), E. coli T7 Express
Kind of assay: Amplex Red / horseradish peroxidase coupled oxidase assay, steady state. In kind it is biochemical, Kitasatospora aureofaciens. Particulars: air O2 ~250 μM, 50 mM Tris/HCl pH 7.5, 30 °C; read-out: [drawing 2] Phlorizin / K m/mM. An excerpt:
Amplex Red / horseradish peroxidase coupled oxidase assay, steady state on KaPOx_xal

The test system of another assay is T2, KaPOx_xalh.
T2 construct: gene KaPOx; C-terminal His6; pET-21a(+), E. coli T7 Express
The description is as above. The assay is classed as biochemical, Kitasatospora aureofaciens. Conditions: air O2 ~250 μM, 50 mM Tris/HCl pH 7.5, 30 °C; read-out: [drawing 2] Phlorizin / K m/mM. The text has this:
Amplex Red / horseradish peroxidase coupled oxidase assay, steady state on KaPOx_xalh

With `O=C(CCc1ccc(O)cc1)c1c(O)cc(O)cc1O[C@@H]1O[C@H](CO)[C@@H](O)[C@H](O)[C@H]1O` [Phlorizin], the Km in the assay with KaPOx_xal worked out at 0.015 ± 0.002 mM; in the assay on KaPOx_xalh, 0.019 ± 0.003 mM.
